{"source": "patent US20050063956A1", "about": "“Method and device for attracting insects” (Colorado State University Research Foundation, priority 1998, published 2005)", "conditions_in_all_cases": "in vivo", "key": {"[1]": {"tested_on": "Reticulitermes virginicus", "assay": "T-tube choice-test behavioral bioassay with CO2", "experimental": "(§1) Behavioral bioassay apparatus: The choice-test bioassay apparatus was constructed from a glass T-tube (5 mm inside diameter, 5 mm stem, with each branch 4.5 cm long). Each branch of the ‘T’ was bent downward (2.5 cm from the junction of the ‘T’) at a 45° angle to form a pitfall trap. A 5 mm NMR cap (cat. no. 100-0050, Drummond Scientific, Broomall, Pa.) with a 1 mm pinhole in it was firmly pushed over the end of each bent branch. A 25 cm length of Teflon tubing (0.8 mm inside diameter) was inserted 3 mm into the hole in each NMR cap and the other end of the tubing was connected to a 35 ml polyethylene syringe (cat. no. 106-0490, Sherwood Medical, St. Louis, Mo.). The two 35-ml syringes were connected to a syringe pump which was adjusted to provide an airflow of 1 ml per min into each choice arm of the bioassay apparatus.\n(§2) Mixtures of CO2 and ambient air were tested to determine the termite response to a range of CO2 concentrations. […] The CO2 concentration of the syringes was determined by using GC-MS-SIM analysis (see below) before each bioassay. […]\n(§3) Procedure: For bioassays, termite workers were collected from plastic tubs by using a camel's hair brush and were placed into a holding container constructed from a 3 cm length of Teflon tubing (8 mm inside diameter). […] Bioassays were conducted for 15 min, after which the number of termites in each pitfall was recorded. […]"}, "Reticulitermes flavipes": {"tested_on": "Reticulitermes flavipes", "assay": "T-tube choice-test behavioral bioassay with CO2", "experimental": "as §1, §2, §3"}, "[2]": {"tested_on": "western corn root worm larvae", "assay": "Glass bead Y-tube choice test, corn volatiles versus CO2 (Example 19)", "design": "species or system Diabrotica virgifera virgifera LeConte", "experimental": "Bioassay Procedure. All bioassays were choice tests conducted using a vertical glass “Y” tube apparatus filled with 3-mm glass beads (Bernklau and Bjostad 1998) (FIG. 62). Volatile compounds were prepared in 35-ml polyethylene syringes (cat no. 106-0490, Sherwood Medical, St. Louis, Mo.) and a syringe pump (Sage Model 355, Fisher Scientific, Pittsburgh, Pa.) was used to provide, slow (1 ml per min) consistent delivery of the compounds into each choice arm of the bioassay apparatus. Twenty newly-hatched larvae (less than 12-hours-old) were used for each bioassay. Non-diapausing larvae were used for all experiments unless otherwise indicated below. For each choice test a minimum of 10 replicates were conducted.\nCorn Headspace Versus CO2. Using the glass bead bioassay (Bernklau and Bjostad 1998) the headspace over germinating corn seeds was tested in a choice test against a series of CO2 concentrations to determine if corn volatiles (including CO2) were more attractive to the larvae than CO2 alone. A 35-ml syringe was filled with the headspace over 3-day-old germinating corn seedlings by means of a 25-cm length of slender Teflon tubing inserted into a hole drilled into the cover of the tub containing the corn seedlings.\nThree different concentrations of CO2 were tested on the control side of the choice test. In the 1 st test, we used ambient room air on the control side, which contains a lower concentration of CO2 than the corn headspace (approximately 1.0 mmol/mol). In the 2nd test, we used GC-MS-SIM to match the CO2 concentration in the syringe on the control side to be equal to that measured in the syringe containing corn headspace. In the 3rd test, the syringe on the control side of the choice test contained a CO2 concentration twice that measured in the corn headspace. To prepare each of these control concentrations, a 2nd 35-ml polyethylene syringe was partially filled (approximately 5 ml) from a tank containing pure (100%) CO2 using a glass syringe. Headspace from a plastic tub containing only moist germination paper was drawn into the syringe to fill it, mixing the air and CO2 thoroughly at the same time. The gas mixtures in the polyethylene syringes were allowed to equilibrate for 15 minutes, and GC-MS-SIM was used to verify the CO2 concentrations in both syringes prior to each bioassay.\nCorn Headspace Versus CO2 with Diapausing Larvae. The larvae used in our studies were from a colony of nondiapausing western corn root worm that has been maintained in our laboratory since 1986. We wished to determine if diapausing western corn root worm larvae would respond differently to corn volatiles than the colony larvae. Using the same method described above, the headspace over germinating corn seeds was tested in a choice test against a series of CO2 concentrations with western corn root worm larvae from a diapausing strain.\nCorn Headspace-Coated Glass Beads versus CO2. In the previous experiments, corn volatiles were introduced into the bottom of the Y-tube and carried through the glass beads by the airstream from the syringe pump. We also tested the possibility that some volatile compounds may have been removed from the airstream by coating out on the glass beads on the bottom of the Y-tube where they would not be available for the larvae to detect at the choice point near the middle of the Y-tube. […]"}}, "data": [{"smiles": "O=C=O", "note": "[CO2, carbon dioxide]", "values": [{"measurement": "CO2 concentration of best attraction", "setting": "[1]", "result": 10, "unit": "mmol per mol"}, {"measurement": "CO2 concentration of best attraction", "setting": "Reticulitermes flavipes", "result": 10, "unit": "mmol per mol"}, {"measurement": "role in attraction of larvae to corn roots (conclusion)", "setting": "[2]", "result": "the only attractive volatile compound that attracts western corn root worm larvae to corn roots"}]}]}
